Seven compounds from PMC6366420, “Design and synthesis of 4-piperazinyl quinoline derived urea/thioureas for anti-breast cancer activity by a hybrid pharmacophore approach” (Journal of Enzyme Inhibition and Medicinal Chemistry, 2019) can be followed below.

Read-outs that look alike come from different tables or passages of the source.

The subject of data set [1] is MDA-MB231. Nature of the data set: SRB antiproliferative assay, MDA-MB231. Format: cell-based, human. The following applies: SRB, 48 h incubation, MDA-MB231 triple-negative breast cancer cells, read-out: GI50 MDA-MB231. As for the experimental part: (§1) The human breast cancer cell lines MDA-MB468, MDA-MB231 and MCF-7 were purchased from ATCC and maintained in RPMI 1640 medium supplemented with 10% fetal bovine serum (Hyclone, Logan UT) and 2 mM L-glutamine. MCF10A and 184B5 immortalised breast cells were purchased from ATCC and maintained in mammary epithelial basal medium supplemented with an MEGM mammary epithelial singlequot kit (Cambrex). Cells were grown at 37 °C with 5% CO2, 95% air under the humidified conditions. Cell line authentication was carried out by Genetica DNA Laboratories (Burlington, NC) using a short tandem repeat profiling method (March 2015; July 2015; September 2016).
(§2) Cell cytotoxic effects were determined by a SRB-based protocol[2]^,[25].
(§3) The newly synthesised 4-piperazinylquinoline compounds (5–30) were evaluated for their antiproliferative effects using three breast cancer cell lines, for which the compounds were diluted to achieve seven different concentrations ranging from […]. Followed by 48 h incubation with the compound, cells were treated with sulforhodamine B (SRB) to measure their growth/viability (% of the untreated control) by spectrophotometer. The total cellular macromolecules levels known to accurately reflect by UV reading of SRB staining. […] The reference compounds CQ and cisplatin were included for the comparison.
On the technique in general: The SRB assay estimates cell density from bound dye.

In data set [2] the test system is MDA-MB468. Nature of the data set: SRB antiproliferative assay, MDA-MB468. The following applies: SRB, 48 h incubation, MDA-MB468 breast cancer cells, read-out: GI50 MDA-MB468. The class given is cell-based, human. As for the experimental part:
as §1, §2, §3

Data set [3] relates to MCF7. In words: SRB antiproliferative assay, MCF7. The class given is cell-based, human. The following applies: Homo sapiens; SRB, 48 h incubation, MCF7 breast cancer cells; read-out: GI50 MCF7. As for the experimental part: as §1, §2, §3
Data set [4] has as its system 184B5. Nature of the data set: SRB antiproliferative assay, 184B5 non-cancer breast cells. Format: cell-based, human. The following applies: Homo sapiens; SRB, 48 h incubation, 184B5 non-cancer immortalised breast cells; read-out: GI50 184B5. As for the experimental part: as §1, §2, §3
(§4) We further assessed their antiproliferative effects on two non-cancer immortalised cell lines (184B5 and MCF10A). […] The antiproliferative effects of compound 23 on cancer cells are thus 7-fold (MDA-MB468 vs MCF10A) to 11-fold (MDA-MB231 vs 184B5) higher than matching non-cancer breast cells, which may indicate that compound 23 could potentially be safer than other compounds. Therefore, we examined it further to gain insights into its molecular mechanism of action.

Data set [5] deals with MCF10A. In words: SRB antiproliferative assay, MCF10A non-cancer breast cells. Format: cell-based, human. The following applies: Homo sapiens, MCF-10A; SRB, 48 h incubation, MCF10A non-cancer immortalised breast cells; read-out: GI50 MCF10A. The method, then: as §1, §2, §3, §4
Data set [6] deals with MCF7 breast cancer cells. In words: Plasma membrane integrity staining (EtBr, AO, CellMask) of MCF7 cells. The class given is cell-based, human. The method, then: (§5) Lysosomal and AO staining were carried out as described previously. Mitochondrial staining with MitoTracker was carried out as described previously. Briefly, cells were plated on a poly-D-lysine pre-coated 1.8-cm sterile glass coverslip that had been placed in a well of a 6-well clustered dish. Cells were then incubated with 50 nM MitoTracker Red (ThermoFisher) for 30 min in a cell culture incubator. Plasma membrane staining was carried out with lipid-specific CellMask (Molecular probes, Life Technologies), according to the manufacturer’s instruction. For actin staining, cells fixed with 4% formaldehyde were incubated with phalloidin conjugated with Fitc (green) for 30 min. For nuclear staining, cells were incubated with 5 µM of DRAQ5 (blue) for 5 min.
However, it is currently unclear how lipid molecules are found throughout the entire cytoplasm. […] In addition, cells treated with compound 23 are often enlarged and flattened, and contained multi-nuclei. In addition, many small vacuoles are found in the cytoplasm of these cells (Figure 4(a–c)). All of these phenomena are likely leading to eventual cancer cell demise in the presence of compound 23.
Figure 4. […] (a) MCF7 cell morphology changes in the presence of compound 23. MCF7 cells were sham treated or treated with compound 23 for 48 h, followed by staining with either EtBr. […]

Data set [7] relates to breast cancer and non-cancer breast cell lines. Nature of the data set: SRB antiproliferative comparison of breast cancer and non-cancer breast cell lines. The note with it: for higher activity than the reference compounds cisplatin and CQ: breast cancer cell lines, GI50 comparison; for antigrowth effect against cancer versus non-cancer cells (in words): three breast cancer lines vs 184B5 and MCF10A. The class given is cell-based, human. The method, then: as §1, §2, §3, §4

For data set [8], the system named is MCF7 cells. Nature of the data set: Mitochondrial (MitoTracker) and lysosomal (LysoTracker) staining of MCF7 cells. Format: cell-based, human. As for the experimental part: as §5
It should be noted that these abnormalities could occur if the membranes of these organelles are compromised. Thus, the molecular target of compound 23 is likely a common element found in the membranes of cytoplasm, mitochondria and lysosomes, but not in the nuclear membrane as it is not compromised in the presence of compound 23 (Figures 4–6).
Figure 5. Mitochondrial membrane may be compromised in the presence of compound 23. […] (b) Mitochondria are aggregated and disorganized in the presence of compound 23. MCF7 mitochondria and nuclei were stained with MitoTracker and DRAQ5, respectively, as descried in Materials and methods.
Figure 6. […]

For orientation: GI50 means the concentration at which growth is held to half of that of the control. Usually melting point stands for the temperature, or range, at which the solid turns liquid. For `S=C(NCCN1CCOCC1)N1CCN(c2ccnc3cc(Cl)ccc23)CC1` [Compound 23, 4-(7-Chloro-quinolin-4-yl)-piperazine-1-carbothioic acid (2-morpholin-4-yl-ethyl)-amide], the melting point lay within 114 to 115 °C. Further, in [1] (Homo sapiens, MDA-MB-231, 48 h), the GI50 came out at 5.3 µM. In addition, the GI50 in data set [1] was 3 ± 0.1 µM. Moreover, the GI50 in data set [2] (Homo sapiens, MDA-MB-468, 48 h) is 4.7 µM. The GI50 in data set [2] was 4.6 ± 0.6 µM. In addition, the GI50 in [3] was 4.5 ± 0.1 µM. Further, the GI50 in data set [4] is 34.4 ± 0.6 µM. In addition, in data set [5], the GI50 was determined as 32.3 ± 0.8 µM. In addition, the “cells showing compromised plasma membrane phenotypes” value in [6] (MCF7, of 500 cells examined, 24-h post treatment) is given as 42.4 ± 4.8%. Also, the “ethidium bromide uptake / plasma membrane integrity (in words)” value in data set [6] (MCF7 cells, treated 48 h, vs Sham control) was “readily uptake ethidium bromide”. Besides, in data set [7] (MDA-MB231 vs 184B5), the “antiproliferative effect on cancer cells higher than matching non-cancer breast cells” value is listed as 11 fold. In addition, in [7] (MDA-MB468 vs MCF10A), the “antiproliferative effect on cancer cells higher than matching non-cancer breast cells” value stood at 7 fold. Besides, in data set [7], the “higher activity than the reference compounds cisplatin and CQ” value is 4-8 fold; the “antigrowth effect against cancer versus non-cancer cells (in words)” value is recorded as “much stronger activities against cancer than non-cancer cells”. In data set [7] (overall range, cancer vs non-cancer breast cells), the “antigrowth/cell-killing activity higher on cancer than non-cancer cells” value was 7-11 fold. In addition, the “mitochondrial and lysosomal volumes (in words)” value in data set [8] is “substantial increases in mitochondrial and lysosomal volumes”.

Turning to `Cc1cccc(C)c1NC(=S)N1CCN(c2ccnc3cc(C(F)(F)F)ccc23)CC1` [Compound 25, 4-(7-Trifluoromethyl-quinolin-4-yl)-piperazine-1-carbothioic acid (2,6-dimethyl-phenyl)-amide], the melting point was 105 to 106 °C. Further, the GI50 in [1] (Homo sapiens, MDA-MB-231, 48 h) stood at 22.2 ± 1.7 µM. The GI50 in data set [2] (Homo sapiens, MDA-MB-468, 48 h) is 13.3 ± 0.3 µM. Besides, the GI50 in data set [3] came to 5.2 ± 0.5 µM. Also, the GI50 in [4] was 21.4 ± 1.3 µM. The GI50 in data set [5] was found to be 14.1 ± 1.5 µM. Further, the “antigrowth effect against cancer versus non-cancer cells (in words)” value in data set [7] is “comparable against cancer and non-cancer cells”.

As to `FC(F)(F)c1ccc(NC(=S)N2CCN(c3ccnc4cc(C(F)(F)F)ccc34)CC2)cc1` [Compound 26, 4-(7-Trifluoromethyl-quinolin-4-yl)-piperazine-1-carbothioic acid (4-trifluoromethyl-phenyl)-amide], the melting point fell in the range of 123 to 124 °C. Also, the 50% growth inhibitory concentration (GI50) in [1] (Homo sapiens, MDA-MB-231, 48 h) was 16.5 ± 1.2 µM. Further, the GI50 in [2] (Homo sapiens, MDA-MB-468, 48 h) was 23.4 ± 0.9 µM. Moreover, the GI50 in [3] was determined as 3.8 ± 0.3 µM. The GI50 in data set [4] was determined as 8.8 ± 0.6 µM. Also, the GI50 in [5] came to 10.7 ± 2 µM. The “antigrowth effect against cancer versus non-cancer cells (in words)” value in [7] is “comparable against cancer and non-cancer cells”.

In the case of `FC(F)(F)c1ccc2c(N3CCN(C(=S)Nc4ccc(Cl)cc4)CC3)ccnc2c1` [Compound 27, 4-(7-Trifluoromethyl-quinolin-4-yl)-piperazine-1-carbothioic acid (4-chloro-phenyl)-amide], the melting point was 165 to 166 °C. Besides, in data set [1] (Homo sapiens, MDA-MB-231, 48 h), the GI50 came to 18.7 ± 2.3 µM. For the same compound, in data set [2] (Homo sapiens, MDA-MB-468, 48 h), the GI50 is 11.8 ± 1.6 µM. For the same compound, the GI50 in data set [3] is 7 ± 0.7 µM. Besides, the GI50 in [4] was 7.9 ± 0.6 µM. Further, in data set [5], the GI50 stood at 9.2 ± 1 µM. For the same compound, in [7], the “antigrowth effect against cancer versus non-cancer cells (in words)” value is “comparable against cancer and non-cancer cells”.

As for `FC(F)(F)c1ccc2c(N3CCN(C(=S)Nc4c(Cl)cc(Cl)cc4Cl)CC3)ccnc2c1` [Compound 28, 4-(7-Trifluoromethyl-quinolin-4-yl)-piperazine-1-carbothioic acid (2,4,6-trichloro-phenyl)-amide], the melting point is 112 to 114 °C. Besides, the GI50 in [1] (Homo sapiens, MDA-MB-231, 48 h) stood at 12.2 ± 0.9 µM. Besides, in [2] (Homo sapiens, MDA-MB-468, 48 h), the GI50 is 23.4 ± 1.9 µM. Moreover, the GI50 in data set [3] worked out at 11.8 ± 1 µM. In addition, in data set [4], the GI50 came out at 5.5 ± 0.5 µM. Besides, in data set [5], the GI50 was determined as 8.2 ± 0.7 µM. Also, in [7], the “antigrowth effect against cancer versus non-cancer cells (in words)” value is listed as “higher activity against non-cancer cells than cancer cells”.

The compound `FC(F)(F)c1ccc2c(N3CCN(C(=S)Nc4cccc5ccccc45)CC3)ccnc2c1` [Compound 29, 4-(7-Trifluoromethyl-quinolin-4-yl)-piperazine-1-carbothioic acid naphthalen-1-ylamide] returned a melting point of 137 to 138 °C. Further, in data set [1] (Homo sapiens, MDA-MB-231, 48 h), the GI50 came out at 9.8 ± 1 µM. Further, the GI50 in data set [2] (Homo sapiens, MDA-MB-468, 48 h) worked out at 9.4 ± 0.8 µM. In addition, the GI50 in data set [3] was found to be 6.4 ± 0.7 µM. Further, the GI50 in [4] was determined as 50.6 ± 3.8 µM. In data set [5], the GI50 was 69.4 ± 3.7 µM. Moreover, in data set [7], the “higher activity than the reference compounds cisplatin and CQ” value is reported as 4-8 fold; the “antigrowth effect against cancer versus non-cancer cells (in words)” value was “much stronger activities against cancer than non-cancer cells”.

`FC(F)(F)c1ccc2c(N3CCN(C(=S)NCCN4CCOCC4)CC3)ccnc2c1` [Compound 30, 4-(7-Trifluoromethyl-quinolin-4-yl)-piperazine-1-carbothioic acid (2-morpholin-4-yl-ethyl)-amide]: the melting point is 134 to 135 °C. Besides, in data set [1] (Homo sapiens, MDA-MB-231, 48 h), the GI50 turned out to be 11.8 ± 0.9 µM. For the same compound, the GI50 in [2] (Homo sapiens, MDA-MB-468, 48 h) stood at 14.2 ± 0.6 µM. Besides, in data set [3], the GI50 came out at 6.2 ± 0.7 µM. Also, the GI50 in [4] turned out to be 17.4 ± 1 µM. The GI50 in data set [5] was 18.9 ± 1.3 µM. For the same compound, the “antigrowth effect against cancer versus non-cancer cells (in words)” value in [7] was “much stronger activities against cancer than non-cancer cells”.
